Biological target: T1, Histone deacetylase 6 (Homo sapiens, UniProt Q9UBN7)
T1 sequence (Q9UBN7 whole entry): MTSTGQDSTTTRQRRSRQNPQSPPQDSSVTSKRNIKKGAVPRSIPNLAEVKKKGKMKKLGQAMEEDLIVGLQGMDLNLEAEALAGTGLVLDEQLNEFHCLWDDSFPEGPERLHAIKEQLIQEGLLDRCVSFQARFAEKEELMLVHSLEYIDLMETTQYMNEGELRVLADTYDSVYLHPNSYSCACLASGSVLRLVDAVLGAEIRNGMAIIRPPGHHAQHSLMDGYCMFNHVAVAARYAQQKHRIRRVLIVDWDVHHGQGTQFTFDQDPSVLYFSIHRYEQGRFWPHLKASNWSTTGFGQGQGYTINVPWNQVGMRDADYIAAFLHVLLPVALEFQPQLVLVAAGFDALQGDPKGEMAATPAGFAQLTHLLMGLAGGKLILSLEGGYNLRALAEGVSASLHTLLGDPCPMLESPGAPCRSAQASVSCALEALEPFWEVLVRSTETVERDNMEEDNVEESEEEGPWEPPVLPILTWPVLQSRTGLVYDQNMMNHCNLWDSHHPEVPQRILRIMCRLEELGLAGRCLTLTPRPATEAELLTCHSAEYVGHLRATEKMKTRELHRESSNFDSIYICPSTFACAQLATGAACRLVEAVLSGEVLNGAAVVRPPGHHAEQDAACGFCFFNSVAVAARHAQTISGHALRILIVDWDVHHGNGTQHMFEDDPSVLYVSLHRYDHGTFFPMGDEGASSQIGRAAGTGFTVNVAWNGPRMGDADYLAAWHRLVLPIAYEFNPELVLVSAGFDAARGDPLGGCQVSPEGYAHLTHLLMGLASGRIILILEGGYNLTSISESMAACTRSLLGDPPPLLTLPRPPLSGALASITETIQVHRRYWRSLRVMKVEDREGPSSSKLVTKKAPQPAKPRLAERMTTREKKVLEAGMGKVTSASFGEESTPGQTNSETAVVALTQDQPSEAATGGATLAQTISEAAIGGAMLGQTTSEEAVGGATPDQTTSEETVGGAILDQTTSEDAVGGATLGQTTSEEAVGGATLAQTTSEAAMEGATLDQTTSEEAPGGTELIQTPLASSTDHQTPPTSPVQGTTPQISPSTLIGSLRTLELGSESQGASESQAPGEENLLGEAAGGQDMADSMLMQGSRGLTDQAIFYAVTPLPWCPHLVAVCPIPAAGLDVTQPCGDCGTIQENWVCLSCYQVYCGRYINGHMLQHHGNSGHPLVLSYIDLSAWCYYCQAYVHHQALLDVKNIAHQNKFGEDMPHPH
Test: HDAC Activity Assay
Conditions: 25 °C
Protocol: The Fluor-de-Lys HDAC activity assay kit (Biomol) was used. Purified recombinant HDAC enzyme was incubated with Fluor-de-Lys substrate in the presence of test compounds. Fluor-de-Lys Developer was then added, and the mixture was incubated for another 10 min at room temperature. Fluorescence was measured using a fluorescent plate reader, with excitation 360 nm and emission 460 nm.

IC50: 4.2 µM
SMILES: NC(=O)c1ccc(C(=O)C(F)(F)F)cn1 [5-(2,2,2-trifluoroacetyl)pyridine-2-carboxamide]
